The subject of data set [1] is foreign-body (sponge) granuloma in rats. Briefly: Experimental granuloma induced by foreign body, histological study. The data set is classed as in vivo, Wistar rats. The conditions noted are these: for histological study of the granuloma (inflammatory connective / granulation tissue): second experiment, day 8, Table XIa. As to the method: (§1) This test consists in studying the subacute cellular phase which is developed in the 8 days which follow the implantation of a foreign body, a sponge of non-resorbable plastic, in the dorsal subcutaneous connective tissue in rats.
The granulomas formed are removed 8 days after the implantation; a histological study is carried out after fixing the tissue and staining sections with hematein/ eosin. The observation is more especially concerned with the cell population of the primary phase of the formation of the granulation tissue: the reticulohistocytic cells, lymphocytes and more especially the macrophages.
(§2) The animals used are Wistar rats weighing 120-140 g and of the same origin, maintained under the same conditions of housing throughout the treatment (8 days).
(§3) The compounds of the invention are administered orally, in a gum suspension, in the morning in a fasted state, using an oesophageal tube.
After 8 days of treatment, the rats are sacrificed by decapitation and the granulomas removed and prepared for the purpose of histological examination.
The experiment conditions are as follows:
The animals are distributed in batches of 10;
Each test product is administered at 2 doses, of 50 and 100 mg, respectively, to 2 batches of 10 animals;
Ketoprofen is used by way of reference product at the same 2 doses and under the same conditions; and
A batch of 10 control animals receives no treatment.
(§4) In this experiment, on the one hand a histological study of the granulomas is performed by sampling on day 8 (results recorded in Table XIa), and on the other hand a study of the weight of the granulomas was performed 10 days after the implantation (results recorded in Table XIb).

A further data set can be described thus: Oral LD50 in mice. The conditions noted are these: mouse, in vivo, female Swiss CF mice, 20 g, 14 days observation, read-out: approximate oral LD50. As to the method: The compounds were suspended in a 3% strength solution of gum arabic so as to supply, in a volume of 2 ml for the rats, the equivalent of 50, 100, 200, 400 and 800 mg/kg, and, in a volume of 1 ml for the mice, 100, 200, 400, 800 and 1,600 mg/kg and, for 1573 and 1579, 3,200 mg/kg.
Gavage was performed by means of a metal tube, on batches of 5 animals for each series.
The animals were observed daily for 14 days.

The subject of data set [2] is rat hind foot kaolin-induced arthritis. The data set can be described thus: Kaolin-induced arthritis test, second experiment, acute phase (volume of the foot at the 8th hour). Conditions: po, 8 h, Table IXa; for change in vivo at 25 mg/kg / change in vivo at 50 mg/kg / change in vivo at 100 mg/kg: 8th hour, read-out: percentage significant decrease in the volume of the treated foot; for ED50: foot volume, read-out: 50% active dose. The data set is classed as in vivo. As to the method:
(§5) The […] of 0.05 ml of a sterile 10% strength suspension of kaolin into the metatarsal flexor sheath of the hind foot of a rat initially induces an oedematous reaction. An inflammatory arthritis then forms.
The early oedematous reaction appears from the first hour, and reaches its maximum between the fourth hour and the sixth hour. This is the manifestation of interest. The assessment of the volume of the foot enables the action of substances on the oedematous reaction to be studied. The measurements are carried out using a Giono and Chevilard plethysmometer.
(§6) The test products are administered orally (stomach tube) one hour before the injection of the kaolin.
(§7) In a second experiment, a more elaborate study was performed in order to ascertain the effect of the products, on the one hand on the acute phase of the inflammatory reaction (measured by the volume of the foot at the 8th hour), and on the other hand on the chronic phase (activity measured by the weight of the foot at the 12th hour).
As in the previous experiment, ketoprofen was used as the comparative product:
The results are expressed as a percentage significant decrease in the volume of the treated foot compared with the controls.

Data set [3] has the same test system. Briefly: Kaolin-induced arthritis test, second experiment, chronic phase (weight of the foot at the 12th hour). In kind it is in vivo. Conditions: po, 12 h, Table IXb; for change in vivo at 25 mg/kg / change in vivo at 50 mg/kg / change in vivo at 100 mg/kg: 12th hour, read-out: percentage significant decrease in the weight of the treated foot; for ED50: foot weight, read-out: 50% active dose. On the procedure:
as §5, §6, §7
As in the previous experiment, ketoprofen was used as the comparative product: […]

Data set [4] relates to rat hind foot carragheenin-induced oedema. Briefly: Carragheenin-induced oedema test. The data set is classed as in vivo. Conditions: 3 h, second experiment, Table Xa, read-out: percentage inhibition of the inflammation; for change in vivo at 25 mg/kg: 25 mg/kg oral; for change in vivo at 50 mg/kg: 50 mg/kg oral; for change in vivo at 100 mg/kg: 100 mg/kg oral.
Data set [5] deals with foreign-body (sponge) granuloma in rats. The data set can be described thus: Experimental granuloma induced by foreign body, weight of the granulomas. In kind it is in vivo, Wistar rats. The conditions noted are these: Rattus norvegicus, po, 240 h, 10 days after implantation, Table XIb, read-out: decrease in the weight of the granulomas. As to the method: as §1, §2, §3, §4

Data set [6] deals with pain threshold of brewer's yeast inflamed rat hind foot. Briefly: Randall and Sellitto's test (analgesic activity). The data set is classed as in vivo. The conditions noted are these: second experiment, Table XIIa; for change in vivo at 25 mg/kg: 25 mg/kg oral; for change in vivo at 25 mg/kg / change in vivo at 50 mg/kg / change in vivo at 100 mg/kg: read-out: percentage increase in the mean pain threshold; for change in vivo at 50 mg/kg: 50 mg/kg oral; for change in vivo at 100 mg/kg: 100 mg/kg oral. The essentials:
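Rats had 0.1 ml 20% brewer's yeast suspension injected under the hind-foot plantar aponeurosis; compounds dosed orally by stomach tube 1 h before yeast. Pain threshold was the pressure eliciting foot withdrawal, read at the 4–6 h plateau; result is % increase in mean threshold versus untreated controls, 10 rats per group.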

Data set [7] deals with biosynthesis of leukotrienes B4 (LTB4), human polymorphonuclear leukocytes. The data set can be described thus: Biosynthesis of LTB4, isomers and oxidized metabolites in human polymorphonuclear leukocytes. In kind it is cell-based. The conditions noted are these: Leukocyte, second experiment, read-out: Percentage inhibition of LTB4 formation. The procedure, abridged:
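Human polymorphonuclear leukocytes (5×10^6, used within 6 h of blood draw) preincubated 10 min at 37° C. with test product at 40 μM in DMSO, stimulated with 10 μM ionophore A 23187 in PBS pH 7.4. LTB4, its isomers and oxidized metabolites quantified by HPLC at 269 nm against PGB2 internal standard, as % inhibition or % increase.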

In data set [8] the test system is thromboxane synthetase. The data set can be described thus: TXB2 production in human platelet suspension (thromboxane synthetase). The conditions noted are these: human platelets, arachidonic acid 5 μg/ml, 37° C., read-out: IC50, inhibition of the production of TXB2. In kind it is cell-based. As to the method: The platelets are incubated with arachidonic acid (5 μg/ml) in the presence of increasing doses of test products (10^-6l M to 5×10^-5 M). Platelets stimulated by arachidonic acid (AA) manufacture a large amount of thromboxane A2 (TXA2), which can be measured radioimmunologically in the form of a stable metabolite TXB2.
The assay of the amount of TXB2 in the medium is performed after a 1- to 15- minute incubation at 37° C., the measurements being made in comparison with a control suspension which has not been incubated with the test products.
Results: These are expressed as IC50, that is to say as the concentration of the test product which permits 50% inhibition of the production of TXB2.

The test system of data set [9] is thromboxane synthetase. Briefly: TXB2 production in human glomeruli (renal preparation model). The conditions noted are these: arachidonic acid 5 ug/ml. The data set is classed as cell-based. As to the method: (§8) Human glomeruli synthesize both thromboxanes, via thromboxane synthetase, and prostaglandins, via prostacyclin synthetase. The experiment consists in stimulating glomerular cells with arachidonic acid (5 ug/ml) and in assaying radioimmunologically the amount of thromboxane B2 (TXB2) and prostacyclin (PGI2) produced in the presence of increasing concentrations of test products (10^-6 M to 5×10^-5 M).
(§9) As for the previous model, the results are expressed as IC50 in comparison with a control suspension.

A further data set relates to prostacyclin synthetase. Briefly: PGI2 production in human glomeruli (renal preparation model). Conditions: arachidonic acid 5 ug/ml. In kind it is cell-based. As to the method: as §8, §9
Data set [10] concerns biosynthesis of leukotrienes C4 (LTC4), human polymorphonuclear leukocytes. The data set can be described thus: LTC4 production in human polymorphonuclear leukocytes. Conditions: Leukocyte, 0.25 h, ionophore A 23187 5 μM, 15 min, 37° C., read-out: IC50, inhibition of the production of LTC4. The data set is classed as cell-based. On the procedure: Human polymorphonuclear Leukocytes are stimulated by calcium ionophore A 23187 (Calbiochem, 5 μM), in the presence or absence of the test products.
After 15 minutes' incubation at 37° C., assay of the leukotrienes C4 (LTC4) is performed radioimmunologically.
The results are expressed as IC50, the concentration producing 50% inhibition of the production of LTC4, by comparison with a control suspension which has not been incubated in the presence of the test products.

The next data set concerns 5-lipoxygenase. The data set can be described thus: Production of LTB4 and 5-HETE by human leukocytes incubated with arachidonic acid. The conditions noted are these: ionophore A 23187 5 μM, arachidonic acid 10 μg/ml. The data set is classed as cell-based. On the procedure:
Human polymorphonuclear leukocytes suspended with arachidonic acid and stimulated by calcium ionophore produce leukotrienes B4 (LTB4).
The test consists in incubating fresh human leukocytes with arachidonic acid at a dose of 10 μg/ml to which a tracer dose of tritium-labelled arachidonic acid has been added. The leukocytes are stimulated with calcium ionophore A 23187 (Calbiochem, 5 μM) and the amount of 5-hydroxyeicosatetraenoic acid (5-HETE) and LTB4 produced is then assayed by HPLC.
5-HETE is the metabolite produced from arachidonic acid by 5-lipoxygenase, and from which LTB4 is produced by the action of an isomerase.
The results are expressed as an integration of the surface of the peak obtained in HPLC by comparison with that obtained with control leukocytes which have not been incubated with the test products.
The results in brackets are expressed as a percentage inhibition of the production of 5-HETE and LTB4.

The text below walks through data of patent publication US4980349A, “Sulphonamides derived from diarylmethanes, the processes for preparing them and pharmaceutical compositions containing them” (SANOFI, priority 1986, dated 1990).

Each structure is given as a SMILES string. Entries after “also recorded” stand apart in the source; their conditions may differ.

In the case of `O=C(c1ccccc1)c1ccccc1S(=O)(=O)NCCN1CCOCC1` [Compound 1341], the “histological study of the granuloma” value in data set [1] (both doses (50 and 100 mg/kg) oral, 8 days, Table XI) is on record as “Inflammatory reaction distinctly attenuated”. Besides, in the data set “Oral LD50 in mice”, the LD50 at 336 h worked out at 250 mg/kg.
As to `O=C(O)CCCCCCCCCCNS(=O)(=O)c1ccc(Cl)c(C(=O)c2ccc(Cl)cc2Cl)c1` [Compound 1763], the change in vivo at 25 mg/kg is -35 ± 5% in [2]; -38 ± 5% in [3]; -30% in data set [4]; -15% in data set [5]; 40% in data set [6]. The change in vivo at 50 mg/kg in [2] was -45 ± 5%; in [3], -40 ± 5%; in data set [4], -35%; in data set [5] it was -20%; in [6] it was 42%. Also, the change in vivo at 100 mg/kg was -50 ± 5% in data set [2]; -48 ± 5% in data set [3]; -45% in data set [4]; -45% in data set [5]; 45% in data set [6]. Moreover, the ED50 in data set [2] and in [3] was 100 mg/kg in each case. In data set [1], the “histological study of the granuloma (inflammatory connective / granulation tissue)” value is reported as “Peripheral shell of low density”. In data set [7], the inhibition at 40 µM came to 100%.
`O=C(O)CCCCCCCCCCCNS(=O)(=O)c1ccc(Cl)c(C(=O)c2ccc(Cl)cc2Cl)c1` [Compound 1764]: the change in vivo at 25 mg/kg in data set [2] was -45 ± 5%; in [3] it was -45 ± 5%; in data set [4], -45%; in [5] it was -45%; in [6], 50%. The change in vivo at 50 mg/kg in data set [2] was -55 ± 5%; in [3], -52 ± 5%; in data set [4], -48%; in data set [5], -50%; in data set [6], 55%. The change in vivo at 100 mg/kg in [2] is -60 ± 5%; in data set [3] it was -58 ± 5%; in [4], -52%; in data set [5], -55%; in data set [6] it was 58%. Also, the ED50 in data set [2] is 50 mg/kg; in data set [3], 50 mg/kg; in [6] (po, analgesia, read-out: 50% active dose), 25 mg/kg. For the same compound, in data set [1], the “histological study of the granuloma (inflammatory connective / granulation tissue)” value is “Peripheral shell of low density; also recorded: lightly inflammatory”. The inhibition at 40 µM in data set [7] worked out at 100%.
`O=C(O)CCCCCCCCCCCNS(=O)(=O)c1ccc(Cl)c(C(=O)c2cccs2)c1` [Compound 1813]: the IC50 in the data set with thromboxane synthetase [8] was 11 µM; with thromboxane synthetase [9], 2000 nM; in the data set with prostacyclin synthetase it was > 50 µM; in [10] it was 1000 nM. Further, the “5-HETE, integration of the surface of the HPLC peak” value in the data set on 5-lipoxygenase is 181.

For orientation: LD50 means the dose at which mortality reaches 50%. As a reminder, the inhibition is how much of the control response was suppressed. The IC50 is the concentration that inhibits the measured activity by half.
